Laboratory results published in US20060069132A1, “Azolecarboxamide herbicides” (priority 2004, published 2006).

Experiments:
Assay in all cases: Test E pre-/postemergence herbicide test
mustard = format: in vivo, Brassica nigra
How it was run: (§1)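 Postemergence treatment targeted plants at the 1- to 4-leaf stage (2–18 cm), alongside preemergence treatment of planted seed; both used a non-phytotoxic solvent mixture with surfactant. Visual ratings, 0 = no effect to 100 = complete control, were taken 12 to 14 days later.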

green foxtail = format: in vivo, Setaria viridis
How it was run: as §1

barnyardgrass = format: in vivo, Echinochloa crus-galli
How it was run: as §1

bermudagrass = format: in vivo, Cynodon dactylon
How it was run: as §1

common ragweed = format: in vivo, Ambrosia elatior
How it was run: as §1

prickly sida = format: in vivo, Sida spinosa
How it was run: as §1

common mallow = format: in vivo, Malva sylvestris
How it was run: as §1

common sowthistle = format: in vivo, Sonchus oleraceous
How it was run: as §1

field bindweed = format: in vivo, Convolvulus arvensis
How it was run: as §1

common chickweed = format: in vivo, Stellaria media
How it was run: as §1

downy bromegrass = format: in vivo, Bromus tectorum
How it was run: as §1

[1] = Postemergence, 500 g ai/ha, scale 0 to 100
[2] = Postemergence, 250 g ai/ha, scale 0 to 100
[3] = Preemergence, 62 g ai/ha, scale 0 to 100
[4] = Preemergence, 125 g ai/ha, scale 0 to 100
[5] = Preemergence, 250 g ai/ha, scale 0 (no effect) to 100 (complete control)
[6] = Preemergence, 500 g ai/ha, scale 0 (no effect) to 100 (complete control)
[7] = postemergence, 125 g ai/ha, scale 0 to 100
[8] = postemergence, 62 g ai/ha, scale 0 to 100

CCNC(=O)c1ccc(F)c(NC(=O)c2cn(C(C)(C)C)nc2CC)c1 [Compound 193]
Plant response rating, Black Mustard (mustard; [1]): 100
Plant response rating, Black Mustard (mustard; [2]): 95
Plant response rating, Black Mustard (mustard; [3]): 80
Plant response rating, Black Mustard (mustard; [4]): 100
Plant response rating, Black Mustard (mustard; [5]): 100
Plant response rating, Black Mustard (mustard; [6]): 100
Plant response rating, Black Mustard (mustard; [7]): 95
Plant response rating, Black Mustard (mustard; [8]): 60
Plant response rating, Foxtail, Green (green foxtail; [1]): 90
Plant response rating, Foxtail, Green (green foxtail; [2]): 50
Plant response rating, Foxtail, Green (green foxtail; [3]): 10
Plant response rating, Foxtail, Green (green foxtail; [4]): 30
Plant response rating, Foxtail, Green (green foxtail; [5]): 80
Plant response rating, Foxtail, Green (green foxtail; [6]): 100
Plant response rating, Foxtail, Green (green foxtail; [7]): 20
Plant response rating, Foxtail, Green (green foxtail; [8]): 10
Plant response rating, Barnyardgrass (barnyardgrass; [1]): 90
Plant response rating, Barnyardgrass (barnyardgrass; [2]): 80
Plant response rating, Barnyardgrass (barnyardgrass; [3]): 20
Plant response rating, Barnyardgrass (barnyardgrass; [4]): 75
Plant response rating, Barnyardgrass (barnyardgrass; [5]): 85
Plant response rating, Barnyardgrass (barnyardgrass; [6]): 95
Plant response rating, Barnyardgrass (barnyardgrass; [7]): 75
Plant response rating, Barnyardgrass (barnyardgrass; [8]): 10
Plant response rating, Bermudagrass (bermudagrass; [1]): 95
Plant response rating, Bermudagrass (bermudagrass; [2]): 90
Plant response rating, Bermudagrass (bermudagrass; [3]): 85
Plant response rating, Bermudagrass (bermudagrass; [4]): 100
Plant response rating, Bermudagrass (bermudagrass; [5]): 100
Plant response rating, Bermudagrass (bermudagrass; [6]): 100
Plant response rating, Bermudagrass (bermudagrass; [7]): 90
Plant response rating, Bermudagrass (bermudagrass; [8]): 60
Plant response rating, Ragweed (common ragweed; [1]): 75
Plant response rating, Ragweed (common ragweed; [2]): 70
Plant response rating, Ragweed (common ragweed; [3]): 50
Plant response rating, Ragweed (common ragweed; [4]): 50
Plant response rating, Ragweed (common ragweed; [5]): 80
Plant response rating, Ragweed (common ragweed; [6]): 95
Plant response rating, Ragweed (common ragweed; [7]): 30
Plant response rating, Ragweed (common ragweed; [8]): 10
Plant response rating, Prickly Sida (prickly sida; [1]): 95
Plant response rating, Prickly Sida (prickly sida; [2]): 75
Plant response rating, Prickly Sida (prickly sida; [3]): 20
Plant response rating, Prickly Sida (prickly sida; [4]): 70
Plant response rating, Prickly Sida (prickly sida; [5]): 70
Plant response rating, Prickly Sida (prickly sida; [6]): 95
Plant response rating, Prickly Sida (prickly sida; [7]): 60
Plant response rating, Prickly Sida (prickly sida; [8]): 60
Plant response rating, Mallow (common mallow; [1]): 90
Plant response rating, Mallow (common mallow; [2]): 90
Plant response rating, Mallow (common mallow; [3]): 60
Plant response rating, Mallow (common mallow; [4]): 95
Plant response rating, Mallow (common mallow; [5]): 95
Plant response rating, Mallow (common mallow; [6]): 95
Plant response rating, Mallow (common mallow; [7]): 60
Plant response rating, Mallow (common mallow; [8]): 20
Plant response rating, Sowthistle (common sowthistle; [1]): 95
Plant response rating, Sowthistle (common sowthistle; [2]): 95
Plant response rating, Sowthistle (common sowthistle; [3]): 80
Plant response rating, Sowthistle (common sowthistle; [4]): 95
Plant response rating, Sowthistle (common sowthistle; [5]): 95
Plant response rating, Sowthistle (common sowthistle; [6]): 95
Plant response rating, Sowthistle (common sowthistle; [7]): 60
Plant response rating, Sowthistle (common sowthistle; [8]): 10
Plant response rating, Bindweed, Field (field bindweed; [1]): 50
Plant response rating, Bindweed, Field (field bindweed; [2]): 50
Plant response rating, Bindweed, Field (field bindweed; [3]): 50
Plant response rating, Bindweed, Field (field bindweed; [4]): 50
Plant response rating, Bindweed, Field (field bindweed; [5]): 80
Plant response rating, Bindweed, Field (field bindweed; [6]): 85
Plant response rating, Bindweed, Field (field bindweed; [8]): 20
Plant response rating, Chickweed (common chickweed; [1]): 100
Plant response rating, Chickweed (common chickweed; [2]): 95
Plant response rating, Chickweed (common chickweed; [3]): 80
Plant response rating, Chickweed (common chickweed; [4]): 100
Plant response rating, Chickweed (common chickweed; [5]): 100
Plant response rating, Chickweed (common chickweed; [6]): 100
Plant response rating, Chickweed (common chickweed; [8]): 40
Plant response rating, Bromegrass, Downy (downy bromegrass; [1]): 80
Plant response rating, Bromegrass, Downy (downy bromegrass; [2]): 70
Plant response rating, Bromegrass, Downy (downy bromegrass; [3]): 10
Plant response rating, Bromegrass, Downy (downy bromegrass; [4]): 30
Plant response rating, Bromegrass, Downy (downy bromegrass; [5]): 80
Plant response rating, Bromegrass, Downy (downy bromegrass; [6]): 90
Plant response rating, Bromegrass, Downy (downy bromegrass; [7]): 30
Plant response rating, Bromegrass, Downy (downy bromegrass; [8]): 20

CCc1nn(C(C)(C)C)cc1C(=O)Nc1cc(C(=O)N(C)C)ccc1F [Compound 222, N-[5-[(dimethylamino)carbonyl]-2-fluorophenyl]-1-(1,1-dimethylethyl)-3-ethyl-1H-pyrazole-4-carboxamide]
Plant response rating, Black Mustard (mustard; [1]): 95
Plant response rating, Black Mustard (mustard; [2]): 95
Plant response rating, Black Mustard (mustard; [3]): 90
Plant response rating, Black Mustard (mustard; [4]): 100
Plant response rating, Black Mustard (mustard; [5]): 100
Plant response rating, Black Mustard (mustard; [6]): 100
Plant response rating, Black Mustard (mustard; [7]): 90
Plant response rating, Black Mustard (mustard; [8]): 90
Plant response rating, Foxtail, Green (green foxtail; [2]): 80
Plant response rating, Foxtail, Green (green foxtail; [3]): 10
Plant response rating, Foxtail, Green (green foxtail; [4]): 50
Plant response rating, Foxtail, Green (green foxtail; [5]): 100
Plant response rating, Foxtail, Green (green foxtail; [6]): 100
Plant response rating, Foxtail, Green (green foxtail; [7]): 40
Plant response rating, Foxtail, Green (green foxtail; [8]): 10
Plant response rating, Barnyardgrass (barnyardgrass; [2]): 70
Plant response rating, Barnyardgrass (barnyardgrass; [3]): 50
Plant response rating, Barnyardgrass (barnyardgrass; [4]): 90
Plant response rating, Barnyardgrass (barnyardgrass; [5]): 100
Plant response rating, Barnyardgrass (barnyardgrass; [6]): 100
Plant response rating, Barnyardgrass (barnyardgrass; [7]): 50
Plant response rating, Barnyardgrass (barnyardgrass; [8]): 50
Plant response rating, Bermudagrass (bermudagrass; [1]): 80
Plant response rating, Bermudagrass (bermudagrass; [2]): 80
Plant response rating, Bermudagrass (bermudagrass; [3]): 80
Plant response rating, Bermudagrass (bermudagrass; [4]): 100
Plant response rating, Bermudagrass (bermudagrass; [5]): 100
Plant response rating, Bermudagrass (bermudagrass; [6]): 100
Plant response rating, Bermudagrass (bermudagrass; [7]): 80
Plant response rating, Bermudagrass (bermudagrass; [8]): 60
Plant response rating, Ragweed (common ragweed; [2]): 70
Plant response rating, Ragweed (common ragweed; [3]): 30
Plant response rating, Ragweed (common ragweed; [4]): 85
Plant response rating, Ragweed (common ragweed; [5]): 95
Plant response rating, Ragweed (common ragweed; [6]): 95
Plant response rating, Ragweed (common ragweed; [7]): 60
Plant response rating, Ragweed (common ragweed; [8]): 20
Plant response rating, Prickly Sida (prickly sida; [1]): 100
Plant response rating, Prickly Sida (prickly sida; [2]): 100
Plant response rating, Prickly Sida (prickly sida; [3]): 20
Plant response rating, Prickly Sida (prickly sida; [4]): 70
Plant response rating, Prickly Sida (prickly sida; [5]): 100
Plant response rating, Prickly Sida (prickly sida; [6]): 100
Plant response rating, Prickly Sida (prickly sida; [7]): 100
Plant response rating, Prickly Sida (prickly sida; [8]): 90
Plant response rating, Mallow (common mallow; [2]): 60
Plant response rating, Mallow (common mallow; [3]): 70
Plant response rating, Mallow (common mallow; [4]): 80
Plant response rating, Mallow (common mallow; [5]): 95
Plant response rating, Mallow (common mallow; [6]): 95
Plant response rating, Mallow (common mallow; [7]): 60
Plant response rating, Mallow (common mallow; [8]): 50
Plant response rating, Sowthistle (common sowthistle; [1]): 100
Plant response rating, Sowthistle (common sowthistle; [2]): 100
Plant response rating, Sowthistle (common sowthistle; [3]): 75
Plant response rating, Sowthistle (common sowthistle; [4]): 90
Plant response rating, Sowthistle (common sowthistle; [5]): 90
Plant response rating, Sowthistle (common sowthistle; [6]): 95
Plant response rating, Sowthistle (common sowthistle; [7]): 60
Plant response rating, Sowthistle (common sowthistle; [8]): 20
Plant response rating, Bindweed, Field (field bindweed; [2]): 95
Plant response rating, Bindweed, Field (field bindweed; [4]): 40
Plant response rating, Bindweed, Field (field bindweed; [5]): 95
Plant response rating, Bindweed, Field (field bindweed; [6]): 95
Plant response rating, Bindweed, Field (field bindweed; [7]): 75
Plant response rating, Bindweed, Field (field bindweed; [8]): 60
Plant response rating, Chickweed (common chickweed; [1]): 100
Plant response rating, Chickweed (common chickweed; [2]): 100
Plant response rating, Chickweed (common chickweed; [3]): 80
Plant response rating, Chickweed (common chickweed; [4]): 100
Plant response rating, Chickweed (common chickweed; [5]): 100
Plant response rating, Chickweed (common chickweed; [6]): 100
Plant response rating, Chickweed (common chickweed; [7]): 100
Plant response rating, Chickweed (common chickweed; [8]): 80
Plant response rating, Bromegrass, Downy (downy bromegrass; [2]): 80
Plant response rating, Bromegrass, Downy (downy bromegrass; [3]): 30
Plant response rating, Bromegrass, Downy (downy bromegrass; [4]): 90
Plant response rating, Bromegrass, Downy (downy bromegrass; [5]): 90
Plant response rating, Bromegrass, Downy (downy bromegrass; [6]): 100
Plant response rating, Bromegrass, Downy (downy bromegrass; [7]): 50
Plant response rating, Bromegrass, Downy (downy bromegrass; [8]): 10

CCc1nn(C(C)C)nc1C(=O)Nc1cccc(C(=O)N2CCCCC2)c1 [Compound 385]
Plant response rating, Black Mustard (mustard; [3]): 0
Plant response rating, Black Mustard (mustard; [5]): 30
Plant response rating, Foxtail, Green (green foxtail; [3]): 10
Plant response rating, Foxtail, Green (green foxtail; [4]): 30
Plant response rating, Foxtail, Green (green foxtail; [5]): 60
Plant response rating, Barnyardgrass (barnyardgrass; [3]): 20
Plant response rating, Barnyardgrass (barnyardgrass; [4]): 50
Plant response rating, Barnyardgrass (barnyardgrass; [5]): 70
Plant response rating, Bermudagrass (bermudagrass; [3]): 20
Plant response rating, Bermudagrass (bermudagrass; [4]): 60
Plant response rating, Bermudagrass (bermudagrass; [5]): 60
Plant response rating, Ragweed (common ragweed; [3]): 0
Plant response rating, Ragweed (common ragweed; [4]): 0
Plant response rating, Ragweed (common ragweed; [5]): 0
Plant response rating, Prickly Sida (prickly sida; [3]): 10
Plant response rating, Prickly Sida (prickly sida; [4]): 100
Plant response rating, Prickly Sida (prickly sida; [5]): 100
Plant response rating, Mallow (common mallow; [3]): 10
Plant response rating, Mallow (common mallow; [4]): 10
Plant response rating, Mallow (common mallow; [5]): 20
Plant response rating, Sowthistle (common sowthistle; [4]): 0
Plant response rating, Sowthistle (common sowthistle; [5]): 60
Plant response rating, Bindweed, Field (field bindweed; [3]): 10
Plant response rating, Bindweed, Field (field bindweed; [4]): 10
Plant response rating, Bindweed, Field (field bindweed; [5]): 20
Plant response rating, Chickweed (common chickweed; [3]): 20
Plant response rating, Chickweed (common chickweed; [4]): 20
Plant response rating, Chickweed (common chickweed; [5]): 60
Plant response rating, Bromegrass, Downy (downy bromegrass; [3]): 10
Plant response rating, Bromegrass, Downy (downy bromegrass; [4]): 10
Plant response rating, Bromegrass, Downy (downy bromegrass; [5]): 20
